The record followed here is publication PMC12091851, “Replacing a Cereblon Ligand by a DDB1 and CUL4 Associated Factor 11 (DCAF11) Recruiter Converts a Selective Histone Deacetylase 6 PROTAC into a Pan‐Degrader” (Chemmedchem, 2025).

For orientation: EC50 means the concentration giving half of the maximal effect.

The test system of assay [1] is MM.1S cells. Kind of assay: CellTiter-Glo cell viability assay. The following applies: 72 h; for EC50: Homo sapiens, MM1.S. The format is cell-based, human. As to the method: For this purpose, the dilution series were prepared in 200-fold concentration in DMSO and further diluted to 10-fold concentration in medium. The final DMSO concentration was 0.5%. The toxicity of compounds was determined after 72 h using the CellTiter-Glo 2.0 Cell Viability Assay (Promega, Madison, WI, USA, #G9242) according to the manufacturer´s protocol. Subsequently, the luminescence was measured using a Tecan Spark (Tecan Group AG, Maennedorf, Swiss) and the half maximal effective concentration (EC50) was determined by plotting dose response curves and nonlinear regression with GraphPad Prism (GraphPad Software, San Diego, CA, USA). […] Cellular HDAC Inhibition Assay […] with minor changes. […] The DMSO-stock solutions were used to perform a serial dilution in DMSO. […] 10 µL of the substrate solution was added and incubated for 3 h under cell culture conditions. […] S8

Assay [2] has as its target HDAC1 (Homo sapiens, UniProt Q13547). In words: Simple Western immunoassay, HDAC1 levels in MM.1S cell lysates. The arrangement: endogenous in cells; host or cells: MM.1S. The format is cell-based. The following applies: MM.1S cells, 10 μM, 24 h. As to the method:
Figure 3 Initial degradation screening of HDAC1 and 6 by DCAF11‐recruiting PROTACs by Simple Western™ immunoassay analysis of MM.1S cell lysates. MM.1S cells were treated with the indicated compound (10 μM) or vehicle (DMSO) for 24 h. […] Bottom: Representative images from a total of n=3 biological replicates, labeled with spacer type; w/o: without spacer.
2. Biological Experiments
No unexpected or unusually high safety hazards were encountered.
The human multiple myeloma cell line MM.1S (CRL-2974) was obtained from American Type Culture Collection (ATCC, Manassas, VA, USA). The semi-adherent cells were cultivated in RPMI 1640 medium (Catalog#21875-034, Gibco, ThermoFisher Scientific Inc., Waltham, MA, USA) supplemented with 10% FBS (PAN Biotech GmbH; Aidenbach, Germany), 100 IU/mL penicil lin, 0.1 mg/mL streptomycin (PAN Biotech GmbH) and 1 mM sodium pyruvate (ThermoFisher Scientific Inc.). […]
(PAN Biotech GmbH). All cells were cultured at 37 °C in a 5% CO2 atmosphere. Incubation times, as part of assay protocols, were performed under these conditions as well. The semi-adherent MM.1S were detached mechanically by using a cell scraper and the adhered […] were trypsinased by trypsin/EDTA (0.05%/0.02% in DPBS, PAN Biotech GmbH) whereas the U-87MG were detached by […]
2.2. Simple Western™ Immunoassay
For the cell lysates, MM.1S (0.5 × 10^6 cells/mL) or U-87MG (0.18 × 10^6 cells/mL) cells were seeded and incubated with the indicated concentration of compound or vehicle (DMSO) for the given time. The adherent cells were cultured for 24 h under cell culture conditions for attachment before treatment. Cell lysis was performed with Cell Extraction Buffer (10 mM Tris, pH 7.4, 100 mM NaCl, 1 mM EDTA, […]
SDS, 0.5% deoxycholate; Catalog# FNN0011, Thermo Fisher Scientific Inc., Waltham, MA, USA) with addition of Halt Protease Inhibitor Cocktail (100×) (Catalog# 78429, Life Technologies GmbH, Carlsbad, CA, USA) and phenylmethanesulfonyl fluoride (Catalog# 10837091001, Sigma-Aldrich, St.
Louis, MO, USA) according to manufacturer´s instructions. Protein content was determined by Pierce™ BCA Protein Assay Kit (Catalog# 23225, Thermo Fisher Scientific Inc.) according to manufacturer´s guidelines. Cell lysates were diluted to a final concentration of 1 mg/mL and denatured according to manufacturer’s guidelines. Anti-HDAC1 (Catalog# 5356S, Cell Signaling Technology, Denver, MA, USA), anti-HDAC6 (Catalog#7558S, Cell Signaling Technology) and anti-GAPDH (Catalog# 2118S, […]
Fluorescence Separation 8x25 Capillary Cartridges (Catalog# SM-FL004-1, Protein Simple, Bio-Techne, Minneapolis, MN, USA) were used for separation and the Anti-Mouse Detection Module (Catalog# DM-002, Protein Simple) was used for detection with addition of 20x Anti-Rabbit HRP […]
Conjugate (Catalog# 043-426, Protein Simple) according to manufacturer´s instructions. The assay was performed with the Jess Simple Western System (catalog# 004-650, Protein Simple), according to manufacturer´s settings. Evaluation and quantification was performed with the compass software (6.2.0, Protein Simple). GraphPad Prism (GraphPad Software, San Diego, CA, USA) was used for normalization, statistical analysis and bar graph creation. Significance testing was performed with a one-way analysis of variance (ANOVA). […]
of each mean compared to a reference mean value. […]
AMC (Catalog# 233691-67-3, BLD pharma) was prepared with and without IGEPAL CA-630 (0.5%, Catalog# J61055, Alfa Aesar). 10 µL of the substrate solution was added and incubated for 3 h under cell culture conditions. The reaction was stopped with 100 µL of stop solution (50 mM Tris-HCl, […]
Trypsin) and incubated for 1.5 h under cell culture conditions. The fluorescence signal was measured by a FLUOstar OPTIMA microplate reader (BMG labtech, Ortenburg, Germany) at excitation of λ = 355 nm and emission of λ = 460 nm. All Compounds were tested in two independent experiments in duplicates and IC50 was determined by nonlinear regression with GraphPad Prim.

Assay [3] relates to MDA-MB-231 cells. Kind of assay: Clonogenic growth assay. The format is cell-based, human. Conditions: 10 μM for 48 h, nine days of growth. As to the method:
Figure 9 Clonogenic growth assay of DCAF11‐recruiting PROTACs. MDA‐MB‐231 cells were treated with 10 μM of the respective compound or vehicle (DMSO) for 48 hours. (A) Representative images of crystal violet stained colonies after nine days of growth. (B) Quantification of counted colonies, presented as mean ± standard deviation of three biological replicates, each performed in triplicates. Significance of quantification compared to vehicle: ns=p≥0.05; **=p≤0.01 and ***=p≤0.001. […]
Subsequently, cells were harvested and
plated in 6-well plates at a density of 750 cells per well in triplicates. The cell culture medium was
changed after five days. Nine days after plating, the colonies were carefully washed with 500 µL DPBS
and stained with 500 µL crystal violet solution (0.5% in methanol). After 30 minutes of incubation at
room temperature, the wells were gently rinsed with deionized water. After counting the formed
colonies, GraphPad Prism (GraphPad Software) was used for bar graph creation. Significance testing
was performed with a one-way analysis of variance (ANOVA). Dunnett’s post-hoc test was employed
to obtain significance levels of each mean compared to a reference mean value.

Assay [4] concerns MM.1S cells. Kind of assay: Cell cycle analysis by PI staining and flow cytometry. The format is cell-based, human. The following applies: 10 μM, 48 h. As to the method:
GraphPad Prism (GraphPad Software). […]
Biotech), resuspended in 1 mL EtOH/D PBS (7/3 v/v), and fixed for 30 min at 4 °C. The samples were rehydrated with DPBS and treated with 5 µg /mL RNAse ( Catalog# EN0531 , ThermoFisher Scientific Inc.) for 15 min at room temperature. The staining was performed with 3 µM propidium iodide (in DPBS) for 15 min at room temperature and analyzed by flow cytometry ( Guava easyCyteTM, Luminex, […]
Lakes, NJ, USA), using the Watson Pragmatic algorithm.[6] GraphPad Prism (GraphPad Software) was used for normalization, statistical analysis, and bar graph creation. Significance testing was performed with a one-way analysis of variance (ANOVA). Dunnett’s post-hoc test was employed to obtain […]
Final DMSO concentration was 0.1%.
Staining was performed with
Fluorescence was measured by flow cytometry (Guava® easyCyteTM, Luminex, Austin, Texas). GraphPad Prism (GraphPad Software) was used for normalization, statistical analysis, and bar graph creation. Significance testing was performed with a one-way analysis of variance (ANOVA).
Subsequently, cells were harvested and […]
After 30 minutes of incubation at […]
Dunnett’s post-hoc test was employed

The mark [5] stands for this setting: MM.1S cells, n.e.: no effect (≤25% effect up to 50 μM), read-out: EC50 antiproliferative activity.
[6] abbreviates: MM.1S cells, n.e.: no effect (≤25% effect up to 50 μM).

Structures are written as SMILES. Like-named read-outs stand apart in the source and are kept apart here.

Chain of HDAC1 (Q13547 whole entry): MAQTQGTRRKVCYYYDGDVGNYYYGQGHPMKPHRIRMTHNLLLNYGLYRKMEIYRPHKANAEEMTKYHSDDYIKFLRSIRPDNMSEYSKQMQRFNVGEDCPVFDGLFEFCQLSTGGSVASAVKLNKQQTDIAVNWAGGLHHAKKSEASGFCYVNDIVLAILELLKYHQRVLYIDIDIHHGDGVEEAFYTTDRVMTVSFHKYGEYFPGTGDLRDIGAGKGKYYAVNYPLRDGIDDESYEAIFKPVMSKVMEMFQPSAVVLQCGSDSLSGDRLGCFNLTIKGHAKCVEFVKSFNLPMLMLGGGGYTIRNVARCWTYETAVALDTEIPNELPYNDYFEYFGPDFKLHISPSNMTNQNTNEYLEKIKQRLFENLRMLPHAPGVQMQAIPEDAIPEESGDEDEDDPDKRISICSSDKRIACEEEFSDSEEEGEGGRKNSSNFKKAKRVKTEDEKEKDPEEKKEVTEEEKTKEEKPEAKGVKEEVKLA

On to `O=C(CCCCCCNC(=O)c1ccc(NC(=O)c2ccc(N(C(=O)CCl)C(C(=O)NCc3ccccc3)c3ccc(Cl)c(Cl)c3)cc2)cc1)NO` (stereo not shown) [Compound 1a], for which the EC50 in assay [1] (setting [5]) was 34 ± 6 µM. For the same molecule, in assay [1] (setting [6]), the EC50 antiproliferative activity result was “diminished antiproliferative activity”.
On to `O=C(CCCCCCNC(=O)c1ccc(NC(=O)[C@H]2CC[C@H](CN(C(=O)CCl)C(C(=O)NCc3ccccc3)c3ccc(Cl)c(Cl)c3)CC2)cc1)NO` (stereo partly shown) [Compound 1b], for which the EC50 in assay [1] (setting [5]) amounted to 18 ± 3 µM. Besides, the EC50 antiproliferative activity result in assay [1] (setting [6]) is given as “diminished antiproliferative activity”.
In the case of `O=C(CCCCCCNC(=O)c1ccc(NC(=O)CCOCCOCCN(C(=O)CCl)C(C(=O)NCc2ccccc2)c2ccc(Cl)c(Cl)c2)cc1)NO` (stereo not shown) [Compound 1c], the EC50 in assay [1] (setting [5]) is 6.2 ± 0.7 µM.
On to `O=C(CCCCCCNC(=O)c1ccc(NC(=O)CCOCCOCCOCCN(C(=O)CCl)C(C(=O)NCc2ccccc2)c2ccc(Cl)c(Cl)c2)cc1)NO` (stereo not shown) [Compound 1d], for which the EC50 in assay [1] (setting [5]) amounted to 6.9 ± 0.6 µM.
Turning to `O=C(CCCCCCNC(=O)c1ccc(NC(=O)CCOCCOCCOCCOCCN(C(=O)CCl)C(C(=O)NCc2ccccc2)c2ccc(Cl)c(Cl)c2)cc1)NO` (stereo not shown) [Compound 1e], in assay [2], the “reduction of HDAC1 levels” value is on record as 51%. For the same molecule, in assay [1] (setting [5]), the half-maximal effective concentration (EC50) stood at 7.3 ± 0.5 µM.
With `O=C(CCCCCCNC(=O)c1ccc(NC(=O)CN(C(=O)CCl)C(C(=O)NCc2ccccc2)c2ccc(Cl)c(Cl)c2)cc1)NO` (stereo not shown) [Compound 1f], the EC50 in assay [1] (setting [5]) turned out to be 19 ± 3 µM.
The same measure, in the same setting: in the case of `O=C(CCCCCCNC(=O)c1ccc(NC(=O)CCCN(C(=O)CCl)C(C(=O)NCc2ccccc2)c2ccc(Cl)c(Cl)c2)cc1)NO` (stereo not shown) [Compound 1g] it was 16 ± 2 µM.
For `O=C(CCCCCCNC(=O)c1ccc(NC(=O)CCCCCN(C(=O)CCl)C(C(=O)NCc2ccccc2)c2ccc(Cl)c(Cl)c2)cc1)NO` (stereo not shown) [Compound 1h], the “reduction of HDAC1 levels” value in assay [2] was “did not reduce HDAC1 levels”. Besides, the EC50 in assay [1] (setting [5]) is 18 ± 7 µM.
Regarding `O=C(CCCCCCNC(=O)c1ccc(NC(=O)CCCCCCCN(C(=O)CCl)C(C(=O)NCc2ccccc2)c2ccc(Cl)c(Cl)c2)cc1)NO` (stereo not shown) [Compound 1i], in assay [1] (setting [5]), the EC50 turned out to be 12 ± 2 µM.
As for `O=C(CCCCCCNC(=O)c1cnc(N(c2ccccc2)c2ccccc2)nc1)NO` [Ricolinostat, ricolinostat, reference compound], in assay [3], the “reduction of colonies (clonogenic growth)” value was “less pronounced and not significant”. In assay [1] (read-out: EC50 MM.1S), the half-maximal effective concentration (EC50) stood at 3 ± 0.6 µM. The “effect on cell cycle phases” value in assay [4] is “stronger effects on the different phases of the cell cycle”.
